From patent US8252807B2, “Methods of inhibiting the interaction between S100 and the receptor for advanced glycation end-products” (Board of Regents, The University of Texas System, priority 2007, dated 2012)

Key:
[1] = system: MPanc-96 orthotopic tumors; test: Tumor growth and metastasis in scid mice, MPanc-96 orthotopic; assay type: in vivo; conditions: for liver metastasis, difference versus control / lung metastasis, difference versus control / tumor burden, difference versus control / lung metastasis, mean / liver metastasis, mean / tumor burden (primary tumor volume by bioluminescence), mean: MPanc-96; for lung metastasis, mean: control mean=5.9×10^7; for liver metastasis, mean: control mean=9.4×10^8; for tumor burden (primary tumor volume by bioluminescence), mean: end of six weeks, cromolyn 5 mg per kg daily i.p., gemcitabine 125 mg per kg bi-weekly i.p., control mean=1.1×10^10
Method: FIGS. 5A-5F show the effect of cromolyn on MPanc-96 tumor growth and metastasis in vivo. MPanc-96 cells stably expressing the firefly luciferase gene were injected orthotopically into 4-week-old male CB 17 scid mice. […] Mice were divided into four groups of five mice each with an equivalent mean tumor size between groups. […] One group was treated with water (control), one group received gemcitabine bi-weekly (125 mg per kg body weight bi-weekly by intraperitoneal injection), one group was administered cromolyn daily (5 mg per kg body weight daily by intraperitoneal injection), and the final group was given the combination of cromolyn and gemcitabine. All groups were treated for six weeks. Bioluminescent imaging was done weekly to assess tumor growth. […] Means and 95% confidence intervals from two independent experiments are shown (n=20). Two-tailed two-sample (unpaired) Student's t-tests were used to determine P values. The anti-tumorigenic capability of the drug cromolyn was assessed in 4-week-old male CB 17 scid mice (n=20) carrying orthopic tumors of BxPC-3, MPanc96, and Panc-1 cells stably expressing a Lenti-luc reporter. All mouse experiments were reviewed and approved by the Institutional Animal Care and Use Committee of UT MD Anderson Cancer Center. All mice were maintained in a sterile environment. Cages, bedding, food, and water were all autoclaved. All mice were maintained on a daily 12-hour light/12-hour dark cycle, according to the institutional animal welfare guidelines. BxPC-3, MPanc96, and Panc-1 cells carrying the Lenti-luc reporter gene were grown to 80% confluence, harvested by incubation with trypsin-EDTA, washed twice in PBS, and resuspended to a final concentration of 4.0×10^6 cells/mL. Each mouse (n=20 mice per cell line) was injected (into the pancreas) with cell suspensions (50 μL). […] This initial tumor volume was used to divide the mice into four groups of five mice each, such that the mean tumor size was equal between groups (FIGS. 4A, 5A, and 6A). To allow enough time to observe differences among treatment groups, the mice were followed for the next 5 weeks. One group of mice was then treated biweekly with a sub-maximal concentration of gemcitabine (125 mg per kg body weight by i.p. injection). A second group was treated with a daily injection of cromolyn (5 mg per kg body weight by i.p. injection). A third group was treated with both bi-weekly gemcitabine and daily cromolyn. The control group was treated daily with vehicle. Treatments were continued for 5 weeks, and the effects on the tumor burden and metastasis were analyzed by weekly bioluminescence imaging (FIGS. 4B, 5B, and 6B). At the end of the experiment the mice were anesthetized with 1.5% isofluorane/air mixture and killed by cervical dislocation. […] Before imaging, mice were placed in an acrylic chamber, anesthetized with 1.5% isofluorane/air mixture, and injected i.p. with 15 mg/mL of luciferin potassium salt in PBS at a dose of 150 mg per kg body weight. A digital grey scale image of each mouse was acquired, followed by acquisition and overlay of a pseudocolor image representing the spatial distribution of detected photons emerging from active luciferase within the mouse. Tumor volume was quantified as the sum of all detected photons within the region of the tumor per second. At the end of experiment, the mice were killed, and tumors were surgically removed and weighed. After the primary tumors were removed, cancer cell dissemination and metastasis was visualized using IVIS imaging, and metastatic colonies were counted. Subsequently, tissues were fixed with formaldehyde, and histology was used to verify the accuracy of the bioluminescence data.

Panc-1 orthotopic tumors = test: Tumor growth and metastasis in scid mice, Panc-1 orthotopic; assay type: in vivo; conditions: for effect on liver or lung metastasis: Panc-1
Method: FIGS. 6A-6F show the effect of cromolyn on Panc-1 tumor growth and metastasis in vivo. Panc-1 cells stably expressing the firefly luciferase gene were injected orthotopically into 4-week-old male CB 17 scid mice. […] Mice were divided into four groups of five mice each with an equivalent mean tumor size between groups. […] One group was treated with water (control), one group received gemcitabine bi-weekly (125 mg per kg body weight bi-weekly by intraperitoneal injection), one group was administered cromolyn daily (5 mg per kg body weight daily by intraperitoneal injection), and the final group was given the combination of cromolyn and gemcitabine. All groups were treated for six weeks. Bioluminescent imaging was done weekly to assess tumor growth. […] Means and 95% confidence intervals from two independent experiments are shown (n=20). Two-tailed two-sample (unpaired) Student's t-tests were used to determine P values.
The anti-tumorigenic capability of the drug cromolyn was assessed in 4-week-old male CB 17 scid mice (n=20) carrying orthopic tumors of BxPC-3, MPanc96, and Panc-1 cells stably expressing a Lenti-luc reporter. All mouse experiments were reviewed and approved by the Institutional Animal Care and Use Committee of UT MD Anderson Cancer Center. All mice were maintained in a sterile environment. Cages, bedding, food, and water were all autoclaved. All mice were maintained on a daily 12-hour light/12-hour dark cycle, according to the institutional animal welfare guidelines.
BxPC-3, MPanc96, and Panc-1 cells carrying the Lenti-luc reporter gene were grown to 80% confluence, harvested by incubation with trypsin-EDTA, washed twice in PBS, and resuspended to a final concentration of 4.0×10^6 cells/mL. Each mouse (n=20 mice per cell line) was injected (into the pancreas) with cell suspensions (50 μL). Bioluminescent imaging to determine tumor volume was performed 1 week after injection because the tumors became established within this amount of time. This initial tumor volume was used to divide the mice into four groups of five mice each, such that the mean tumor size was equal between groups (FIGS. 4A, 5A, and 6A). To allow enough time to observe differences among treatment groups, the mice were followed for the next 5 weeks. One group of mice was then treated biweekly with a sub-maximal concentration of gemcitabine (125 mg per kg body weight by i.p. injection). A second group was treated with a daily injection of cromolyn (5 mg per kg body weight by i.p. injection). A third group was treated with both bi-weekly gemcitabine and daily cromolyn. The control group was treated daily with vehicle. Treatments were continued for 5 weeks, and the effects on the tumor burden and metastasis were analyzed by weekly bioluminescence imaging (FIGS. 4B, 5B, and 6B). At the end of the experiment the mice were anesthetized with 1.5% isofluorane/air mixture and killed by cervical dislocation.
Bioluminescence imaging was conducted using a cryogenically cooled IVIS 100 imaging system coupled to a data acquisition computer running Living Image software (Xenogen Corp., Alameda, Calif.). Before imaging, mice were placed in an acrylic chamber, anesthetized with 1.5% isofluorane/air mixture, and injected i.p. with 15 mg/mL of luciferin potassium salt in PBS at a dose of 150 mg per kg body weight. A digital grey scale image of each mouse was acquired, followed by acquisition and overlay of a pseudocolor image representing the spatial distribution of detected photons emerging from active luciferase within the mouse. Tumor volume was quantified as the sum of all detected photons within the region of the tumor per second. At the end of experiment, the mice were killed, and tumors were surgically removed and weighed. After the primary tumors were removed, cancer cell dissemination and metastasis was visualized using IVIS imaging, and metastatic colonies were counted. […]

| SMILES | liver metastasis, difference versus control [1] | lung metastasis, difference versus control [1] | tumor burden, difference versus control [1] | lung metastasis, mean [1] | liver metastasis, mean [1] | tumor burden (primary tumor volume by bioluminescence), mean [1] | effect on body weight ([1]; MPanc-96 model, up to 6 weeks) | effect on liver or lung metastasis (Panc-1 orthotopic tumors) | effect on body weight (Panc-1 orthotopic tumors; Panc-1 model, up to 6 weeks) | tumor development in Panc-1 model (Panc-1 orthotopic tumors; cromolyn 5 mg per kg daily i.p., alone or with gemcitabine) | body weight, difference versus control (Panc-1 orthotopic tumors; Panc-1 model) [g] | body weight at the end of the experiment, mean (Panc-1 orthotopic tumors; Panc-1 model, control mean=32.0 g) [g] |
| --- | --- | --- | --- | --- | --- | --- | --- | --- | --- | --- | --- | --- |
| O=C(O)c1cc(=O)c2c(OCC(O)COc3cccc4oc(C(=O)O)cc(=O)c34)cccc2o1 [cromolyn, disodium 1,3-bis[(2′-carboxylatochromon-5′-yl)oxy]-2-hydroxypropane] | 7.2×10^8 photons/sec | 5.6×10^7 photons/sec | 6.2×10^9 photons/sec | 3.2×10^6 photons/sec | 2.2×10^8 photons/sec | 4.8×10^9 photons/sec | no effect on body weight | neither cromolyn nor gemcitabine nor the combination reduced liver or lung metastasis | no effect on body weight | did not reduce tumor development or increase the effectiveness of gemcitabine |  |  |
| Nc1ccn([C@@H]2O[C@H](CO)[C@@H](O)C2(F)F)c(=O)n1 [gemcitabine] | 8.1×10^8 photons/sec | 5.4×10^7 photons/sec | 6.9×10^9 photons/sec | 5.0×10^6 photons/sec | 1.2×10^8 photons/sec | 4.1×10^9 photons/sec |  | neither cromolyn nor gemcitabine nor the combination reduced liver or lung metastasis |  |  | 4.8 | 27.2 |
